Reference: patent US20120214843A1, “Combination Treatment of Hydroxpyridonate Actinide/Lanthanide Decorporation Agents” (priority 2009, published 2012)

Experiments:
[1] = Pharmacokinetic studies using 14C-labeled ligands; type: in vivo
[2] = Actinide decorporation in mice after iv 233U(VI) injection, single or combined HOPO ligands; type: in vivo, Swiss-Weber mice
Experimental: (§1) Ligand Combination. […] Tetradentate 5-LIO(Me-3,2-HOPO), HOPO (2), is structurally suitable for chelating Np(V) and U(VI). Treatment is likely to be delayed in human contamination with dispersed radionuclides. Those conditions were approached, using mice, by ligand injection ip at 24 h or oral administration at 1 or 24 h after an iv actinide injection. Dosages of (1) and (2) were, respectively, 30 and 100 μmolkg^−1 ip and 100 and 200 μmolkg^−1 oral. Because mixtures of radionuclides may be released, (1) and (2) were combined to take advantage of their differing efficacies for the actinides. Dosages of combined (1) and (2) were, respectively, 30 plus […] injected ip and […] oral. Actinides in all mouse tissues and excreta were determined using published methods.
(§2) Tetradentate 5-LIO(Me-3,2-HOPO), HOPO (2), is structurally suitable for chelating Np(V) and U(VI). Treatment is likely to be delayed in human contamination with dispersed radionuclides. Those conditions were approached, using mice, by ligand injection ip at 24 h or oral administration at 1 or 24 h after an iv actinide injection. Dosages of (1) and (2) were, respectively, 30 and 100 μmolkg-1 ip and 100 and 200 μmolkg-1 oral. Because mixtures of radionuclides may be released, (1) and (2) were combined to take advantage of their differing efficacies for the actinides. Dosages of combined (1) and (2) were, respectively, 30 plus 100 μmolkg-1 injected ip and 100 and 200 μmolkg-1 oral. Actinides in all mouse tissues and excreta were determined using published methods.
(§3) Objective: to assay the efficacy of the two ligands at promoting radionuclide excretion with prompt or delayed administration, as single or combined treatments, and to identify target organs and excretion pathways. The test system used Swiss-Weber mice (˜35 g). Actinide loading involves intravenous injection of An-citrate complex at t0. Samples of later taken of the whole skeleton, liver, kidneys, bulk soft tissues, urine, and feces (Σ=100%). (See Table 1.)

[3] = Clearing Pu from mouse tissues relative to CaNa3-DTPA; type: in vivo
Source text: (§4) In vivo Efficacy. […] For example, the efficiency of 3,4,3-LI-1,2-HOPO for clearing circulating Pu from mouse tissues ranges from 100 times (skeleton) to 240 times (soft tissues) that of CaNa3-DTPA in five different protocols. In addition, the optimal activity dose of 3,4,3-LI-1,2-HOPO for removing newly deposited Pu from mice is 2.5% of the dose of CaNa3-DTPA used clinically. The tetradentate 5-LIO-Me-3,2-HOPO has potential therapeutic value for Pu, U, Am and Np, and its efficiency for clearing circulating Pu from mouse tissues ranges from 5 times (skeleton) to 15 times (liver) that of CaNa3-DTPA.

[4] = Actinide decorporation in mice after iv 237Np(V) injection, single or combined HOPO ligands; type: in vivo, Swiss-Weber mice
Experimental: as §1, §2, §3

[5] = In vivo actinide chelation and removal compared with CaNa3-DTPA; parameters: species or system mice
Source text: as §4
(§5) Oral Activity. Both compounds are orally active actinide chelators: when administered orally to mice or beagles after a Pu injection, 3,4,3-LI-1,2-HOPO and 5-LIO-Me-3,2-HOPO can remove up to 80% and 60%, respectively, of the injected Pu.

[6] = Oral removal of injected Pu; type: in vivo; details: administered orally to mice or beagles after a Pu injection
Source text: as §5

[7] = Actinide decorporation in mice after iv 238Pu(IV) injection, single or combined HOPO ligands; type: in vivo, Swiss-Weber mice; details: ligand injected ip at 24 h
Experimental: as §1
(§6) Tetradentate 5-LIO(Me-3,2-HOPO), HOPO (2), is structurally suitable for chelating Np(V) and U(VI). Treatment is likely to be delayed in human contamination with dispersed radionuclides. Those conditions were approached, using mice, by ligand injection ip at 24 h or oral administration at 1 or 24 h after an iv actinide injection. Dosages of (1) and (2) were, respectively, 30 and 100 μmolkg-1 ip and 100 and 200 μmolkg-1 oral. […] Actinides in all mouse tissues and excreta were determined using published methods. […]

[8] = Actinide decorporation in mice, all actinides and protocols, comparison of treatments; parameters: species or system Swiss-Weber mice; details: mouse
Experimental: as §1, §6

[9] = Actinide decorporation in mice after iv 241Am(III) injection, single or combined HOPO ligands; type: in vivo, Swiss-Weber mice; details: ligand injected ip at 24 h
Experimental: as §1, §6

Compound: Cn1ccc(C(=O)NCCOCCNC(=O)c2ccn(C)c(=O)c2O)c(O)c1=O [5-LIO(Me-3,2-HOPO)]
- stability to metabolic degradation [1]: stable to metabolic degradation
- U(VI) excretion ([2]; ligand given orally at 1 h): about 115 % control
- kidney U(VI) ([2]; ligand given orally at 1 h): 50 % control
- U(VI) excretion ([2]; ligand injected ip at 24 h): about 3 times control
- kidney U(VI) ([2]; ligand injected ip at 24 h): 45 % control
- kidney U(VI) ([2]; oral treatment at 24 h): 70 % control
- efficiency for clearing circulating Pu from mouse tissues, liver ([3]; liver): 15 times that of CaNa3-DTPA
- efficiency for clearing circulating Pu from mouse tissues, skeleton [3]: 5 times that of CaNa3-DTPA
- Np(V) excretion ([4]; ligand given orally at 1 h): about 115 % control
- liver Np(V) ([4]; ligand given orally at 1 h): 25 % control
- Np(V) excretion ([4]; ligand injected ip at 24 h): about 3 times control
- liver Np(V) ([4]; ligand injected ip at 24 h): 30 % control
- liver Np(V) ([4]; oral treatment at 24 h): 50 % control
- removing newly deposited Pu, Np, Am and U from mice, compared with CaNa3-DTPA [5]: significantly more effective
- injected Pu removed [6]: ≤ 60%

Compound: O=C(NCCCN(CCCCN(CCCNC(=O)c1cccc(=O)n1O)C(=O)c1cccc(=O)n1O)C(=O)c1cccc(=O)n1O)c1cccc(=O)n1O [3,4,3-LI(1,2-HOPO)]
- stability to metabolic degradation [1]: stable to metabolic degradation
- reduction of liver and skeleton actinide, Pu(IV) [7]: appreciable and significant reductions
- optimal activity dose for removing newly deposited Pu from mice ([3]; mice): 2.5 % of the dose of CaNa3-DTPA used clinically
- efficiency for clearing circulating Pu from mouse tissues, skeleton [3]: 100 times that of CaNa3-DTPA
- efficiency for clearing circulating Pu from mouse tissues, soft tissues ([3]; soft tissues, five different protocols): 240 times that of CaNa3-DTPA
- removing newly deposited Pu, Np, Am and U from mice, compared with CaNa3-DTPA [5]: significantly more effective
- Pu, Np, Th, Am and Cf chelation in vivo ([5]; mouse, in vivo): highly effective
- injected Pu removed [6]: up to 80%
- in vivo chelation of Pu(IV) and Am(III) [8]: highly effective
- reduction of liver and skeleton actinide, Am(III) [9]: appreciable and significant reductions
